According to article PMC12072202, “Identification of Novel HPK1 Hit Inhibitors: From In Silico Design to In Vitro Validation” (International Journal of Molecular Sciences, 2025):
pIC50: −log10 of the molar value. Several values for one entry are separate records, joined by “and”; a condition that tells them apart may be missing. Identical values can stand only once. Like-named read-outs stand apart in the source and are kept apart here.

Molecular target: T1, human recombinant active HPK1 (Homo sapiens, UniProt Q92918)
T1 construct: purchased Reaction Biology Corp., Malvern, PA, USA (contract assay)
T1 sequence (Q92918 whole entry): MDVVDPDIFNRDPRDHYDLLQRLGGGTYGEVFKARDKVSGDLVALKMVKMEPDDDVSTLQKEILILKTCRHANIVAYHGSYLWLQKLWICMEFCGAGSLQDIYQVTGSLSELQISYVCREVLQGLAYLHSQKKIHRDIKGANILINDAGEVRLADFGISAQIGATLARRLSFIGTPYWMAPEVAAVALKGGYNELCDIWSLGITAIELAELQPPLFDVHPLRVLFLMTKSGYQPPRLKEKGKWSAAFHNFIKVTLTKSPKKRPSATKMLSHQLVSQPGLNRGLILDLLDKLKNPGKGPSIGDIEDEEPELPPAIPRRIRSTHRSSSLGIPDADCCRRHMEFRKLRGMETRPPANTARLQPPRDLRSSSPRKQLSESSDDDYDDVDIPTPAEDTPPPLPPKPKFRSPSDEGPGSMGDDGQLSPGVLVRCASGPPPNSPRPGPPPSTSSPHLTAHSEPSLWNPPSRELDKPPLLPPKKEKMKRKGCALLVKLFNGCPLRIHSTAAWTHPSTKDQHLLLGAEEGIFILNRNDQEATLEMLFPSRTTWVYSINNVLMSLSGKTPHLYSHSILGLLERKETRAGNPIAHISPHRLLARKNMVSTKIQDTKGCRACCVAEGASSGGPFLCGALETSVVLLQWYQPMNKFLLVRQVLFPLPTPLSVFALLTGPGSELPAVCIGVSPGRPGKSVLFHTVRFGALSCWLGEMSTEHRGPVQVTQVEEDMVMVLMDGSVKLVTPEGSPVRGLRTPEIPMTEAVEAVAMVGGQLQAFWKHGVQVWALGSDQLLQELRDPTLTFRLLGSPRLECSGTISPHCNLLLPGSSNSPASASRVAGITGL
Test: radiometric HotSpot kinase assay (33P-ATP, myelin basic protein substrate)
Assay type: biochemical
Settings: for inhibition at 25 µM: 25 µM compound; for inhibition at 25 µM / inhibition at 50 µM: duplicate; for inhibition at 50 µM: 50 µM compound
Experimental: The in vitro inhibitory activity of the fifteen purchased compounds against recombinant human HPK1 was evaluated using a radiometric HotSpot^TM kinase assay. The results were expressed as a percentage of the remaining kinase activity relative to its activity in negative control reactions (DMSO). […] Six hits (ISR-03, ISR-04, ISR-05, ISR-10, ISR-13, and ISR-11) were selected for IC50 value determination.
The selected compounds were purchased from ASINEX (ASINEX, Amsterdam, The Netherlands) and OTAVA lead-like (OTAVA Ltd., Vaughan, ON, Canada) via local vendors. […] In brief, this assay was performed by preparing the kinase substrate (myelin basic protein) with a concentration of 20 µM in freshly prepared base reaction buffer (20.0 mM Hepes (pH 7.5), 10.0 mM MgCl2, 1.0 mM EGTA, 0.01% Brij35, 0.02 mg/mL BSA, 0.1 mM Na3VO4, 2.0 mM DTT, and 1% DMSO). Then, the kinase enzyme was delivered into the substrate solution by gently mixing, followed by adding the tested compounds dissolved in 100% DMSO using the Echo550 liquid handler and incubated for 20 min at room temperature. Finally, the reaction was initiated by the addition of ^33P-γ-ATP with a concentration of 10.0 µM and incubated for 2 h at room temperature. The percentage of kinase activity was detected using the P81 filter-binding method. For IC50 determination, the compounds’ inhibitory activity was tested at 10 concentrations (100 µM, 33.3 µM, 11.10 µM, 3.70 µM, 1.23 µM, 0.412 µM, 0.137 µM, 45.70 nM, 15.20 nM, and 5.08 nM) in one independent experiment in duplicate mode and prepared using 3-fold serial dilutions. The percentage of remaining kinase activity in tested samples was determined first, and then Prism GraphPad software version 10.2.0 (nonlinear regression/variable slope) was used to obtain the IC50 values and curve fits.

[1] = 10 concentrations, 3-fold dilution from 100 µM, 10 µM ATP, mean ± SD where given, read-out: IC50
[2] = Prism fit table of single inhibition curve (A/B replicate), Figure 3, unit inferred, read-out: EC50 (the source's name)

SMILES | inhibition at 25 µM (10 µM ATP) | inhibition at 50 µM (10 µM ATP) | pIC50 [1] | pIC50 [2]
CCCNC(=O)c1cc2c(=O)n3cccc(C)c3nc2s1 [ISR-04] | 2.44% | 10.1% | < 4.00 | 
COc1ccc2[nH]c(=O)c(CNc3ccccc3NC(C)=O)cc2c1 [ISR-03] | 26.6% | 52.4% | 4.36 | 4.36
Cc1cccn2c(=O)c3cc(C(=O)Nc4ccccc4C(N)=O)sc3nc12 [ISR-05] | 0% | 13.9% | 4.62 | 4.69 and 4.56
